Laboratory results: US20180250303A1, “TGF BETA RECEPTOR ANTAGONISTS” (BRISTOL-MYERS SQUIBB COMPANY, priority 2015, published 2018)

How the values were obtained:
[1] = target: HIS-TGFβR2 WT (Homo sapiens, UniProt P37173); assay: HTRF probe displacement assay, TGFβR2 HIS WT; format: binding; settings: 1 nM HIS-TGFβR2 WT, labeled probe at Kd, 1 hour at room temperature
Protocol: (§1) Compounds were dissolved at 10 mM in dimethylsulfoxide (DMSO) and evaluated at eleven concentrations. IC50 values were derived by non-linear regression analysis.

[2] = target: T1, HIS-TGFβR1 T204D (Homo sapiens, UniProt P36897, T204D); assay: HTRF probe displacement assay, TGFβR1 HIS T204D; format: binding; settings: 1 nM HIS-TGFβR1 T204D, labeled probe at Kd, 1 hour at room temperature
T1 sequence (P36897 34-503 T204D): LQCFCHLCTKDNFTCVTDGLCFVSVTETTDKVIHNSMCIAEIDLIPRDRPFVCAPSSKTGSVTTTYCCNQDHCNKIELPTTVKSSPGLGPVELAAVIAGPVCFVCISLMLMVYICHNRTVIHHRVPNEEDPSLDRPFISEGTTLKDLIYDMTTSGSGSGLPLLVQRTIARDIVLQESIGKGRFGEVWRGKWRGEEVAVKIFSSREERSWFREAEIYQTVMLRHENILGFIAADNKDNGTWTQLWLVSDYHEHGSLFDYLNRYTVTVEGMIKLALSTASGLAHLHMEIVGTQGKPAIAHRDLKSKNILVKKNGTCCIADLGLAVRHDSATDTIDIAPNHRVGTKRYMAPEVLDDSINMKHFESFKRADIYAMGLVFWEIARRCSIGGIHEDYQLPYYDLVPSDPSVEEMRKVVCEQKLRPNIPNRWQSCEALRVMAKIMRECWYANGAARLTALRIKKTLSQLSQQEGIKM
Protocol: as §1

HIS-TGFβR2 WT, sequence (P37173 23-567): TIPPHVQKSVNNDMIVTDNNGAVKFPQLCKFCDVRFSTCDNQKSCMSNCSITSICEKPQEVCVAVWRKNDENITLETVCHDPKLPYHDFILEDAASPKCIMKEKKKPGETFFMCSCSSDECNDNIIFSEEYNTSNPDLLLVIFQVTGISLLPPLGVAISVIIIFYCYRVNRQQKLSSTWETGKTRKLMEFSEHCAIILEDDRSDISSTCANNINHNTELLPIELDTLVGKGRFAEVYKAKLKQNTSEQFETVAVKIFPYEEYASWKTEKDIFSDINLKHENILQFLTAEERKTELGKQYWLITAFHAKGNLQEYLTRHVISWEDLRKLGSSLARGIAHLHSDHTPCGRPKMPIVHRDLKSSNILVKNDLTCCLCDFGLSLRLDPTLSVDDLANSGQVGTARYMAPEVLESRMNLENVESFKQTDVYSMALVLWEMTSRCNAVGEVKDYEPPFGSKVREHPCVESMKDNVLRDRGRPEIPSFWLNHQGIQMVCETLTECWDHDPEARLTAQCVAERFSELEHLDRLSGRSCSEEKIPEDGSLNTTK

| SMILES | IC50 [1] [nM] | IC50 [2] [nM] |
| --- | --- | --- |
| Cc1nc2c(Nc3ccncc3F)nc(-c3cccc(C(F)(F)F)n3)nc2[nH]1 [Example 16, N-(3-fluoropyridin-4-yl)-8-methyl-2-(6-(trifluoromethyl)pyridin-2-yl)-9H-Purin-6-amine] | > 15000 | 5.3 |
| Cc1nc(-c2nc(Nc3ccncc3F)c3nc[nH]c3n2)ccc1F [Example 5, 2-(5-fluoro-6-methylpyridin-2-yl)-N-(3-fluoropyridin-4-yl)-9H-Purin-6-amine] | 2800 | 0.36 |
| COCCC(=O)Nc1cc(Nc2nc(-c3cccc(C(F)(F)F)n3)nc3[nH]cnc23)ccn1 [Example 22, 3-methoxy-N-(4-((2-(6-(trifluoromethyl)pyridin-2-yl)-9H-purin-6-yl)amino)pyridin-2-yl)propanamide] | > 15000 | 1.1 |
| Fc1cnccc1Nc1nc(-c2cccc(C(F)(F)F)n2)nc2[nH]cnc12 [Example 3, N-(3-fluoropyridin-4-yl)-2-(6-(trifluoromethyl)pyridin-2-yl)-9H-Purin-6-amine] | > 15000 | 1.1 |
| CC(=O)Nc1cc(Nc2nc(-c3cccc(C(F)(F)F)n3)nc3[nH]c(C)nc23)c(F)cn1 [Example 15, N-(5-fluoro-4-((8-methyl-2-(6-(trifluoromethyl)pyridin-2-yl)-9H-Purin-6-yl)amino)pyridin-2-yl)acetamide] | > 15000 | 51 |
| COC(=O)Nc1cc(Nc2nc(-c3cccc(C(F)(F)F)n3)nc3[nH]cnc23)ccn1 [Example 19, Methyl (4-((2-(6-(trifluoromethyl)pyridin-2-yl)-9H-purin-6-yl)amino)pyridin-2-yl)carbamate] | > 15000 | 2 |
| CC(=O)Nc1cc(Nc2nc(-c3cccc(C)n3)nc3[nH]cnc23)ccn1 [Example 6, N-(4-((2-(6-methylpyridin-2-yl)-9H-Purin-6-yl)amino)pyridin-2-yl)acetamide] | 440 | 0.36 |
| CC(=O)Nc1nccc(Nc2nc(-c3cccc(C(F)(F)F)n3)nc3[nH]cnc23)c1F [Example 12, N-(3-fluoro-4-((2-(6-(trifluoromethyl)pyridin-2-yl)-9H-Purin-6-yl)amino)pyridin-2-yl)acetamide] | > 15000 | 8.9 |
| Fc1cnccc1Nc1nc(-c2cccc(C(F)F)n2)nc2[nH]cnc12 [Example 2, 2-(6-(difluoromethyl)pyridin-2-yl)-N-(3-fluoropyridin-4-yl)-9H-Purin-6-amine] | 3100 | 0.41 |
| CC(=O)Nc1cc(Nc2nc(-c3ccccn3)nc3[nH]cnc23)ccn1 [Example 9, N-(4-((2-(pyridin-2-yl)-9H-Purin-6-yl)amino)pyridin-2-yl)acetamide] | 140 | 0.9 |
| CC(=O)Nc1cc(Nc2nc(-c3cccc(C(F)(F)F)n3)nc3[nH]c(C4CC4)nc23)ccn1 [Example 17, N-(4-((8-cyclopropyl-2-(6-(trifluoromethyl)pyridin-2-yl)-9H-Purin-6-yl)amino)pyridin-2-yl)acetamide] | > 15000 | 1.6 |
| CC(=O)Nc1cc(Nc2nc(-c3cccc(C(F)(F)F)n3)nc3[nH]cnc23)ccn1 [Example 8, N-(4-((2-(6-(trifluoromethyl)pyridin-2-yl)-9H-Purin-6-yl)amino)pyridin-2-yl)acetamide] | 1300 | – |
| CC(=O)Nc1cc(Nc2nc(-c3cccc(C(F)(F)F)n3)nc3[nH]c(C)nc23)ccn1 [Example 14, N-(4-((8-methyl-2-(6-(trifluoromethyl)pyridin-2-yl)-9H-Purin-6-yl)amino)pyridin-2-yl)acetamide] | > 15000 | 1.6 |
| O=C(CCC(F)(F)F)Nc1cc(Nc2nc(-c3cccc(C(F)(F)F)n3)nc3[nH]cnc23)ccn1 [Example 23, 4,4,4-trifluoro-N-(4-((2-(6-(trifluoromethyl)pyridin-2-yl)-9H-purin-6-yl)amino)pyridin-2-yl)butanamide] | > 15000 | 0.48 |
| O=C(Nc1cc(Nc2nc(-c3cccc(C(F)(F)F)n3)nc3[nH]cnc23)ccn1)C1CC1 [Example 20, N-(4-((2-(6-(trifluoromethyl)pyridin-2-yl)-9H-purin-6-yl)amino)pyridin-2-yl)cyclopropanecarboxamide] | 470 | 0.56 |
| CC(=O)Nc1cc(Nc2nc(-c3cccc(C(F)F)n3)nc3[nH]cnc23)ccn1 [Example 7, N-(4-((2-(6-(difluoromethyl)pyridin-2-yl)-9H-Purin-6-yl)amino)pyridin-2-yl)acetamide] | 520 | 0.72 |
| CC(=O)Nc1cc(Nc2nc(-c3ccc(F)c(C)n3)nc3[nH]cnc23)ccn1 [Example 24, N-(4-((2-(5-fluoro-6-methylpyridin-2-yl)-9H-purin-6-yl)amino)pyridin-2-yl)acetamide] | 290 | 0.34 |
| COCC(=O)Nc1cc(Nc2nc(-c3cccc(C(F)(F)F)n3)nc3[nH]cnc23)ccn1 [Example 21, 2-methoxy-N-(4-((2-(6-(trifluoromethyl)pyridin-2-yl)-9H-purin-6-yl)amino)pyridin-2-yl)acetamide] | > 15000 | 0.45 |
